pEC50, pIC50: −log10 of the molar value. Values after ≈ are worked out from the molar mass of the structure shown.
Tests used:
[1] = target: T1, Mitogen-activated protein kinase kinase kinase kinase 1 (Homo sapiens, UniProt Q92918); assay: Inhibition of human recombinant wild type N-terminal HPK1 (1 to 346 residues) infected in insect Sf21 cells using fluorescein-PKC as substrate preincubated for 10 mins followed by substrate addition and measured after 90 mins by microplate reader based analysis; format: single protein
[2] = target: T1, Mitogen-activated protein kinase kinase kinase kinase 1; assay: Inhibition of HPK1 in human PBMC cells assessed as IL-2 level pretreated for 4 hrs followed by anti-CD3/CD28 stimulation for 20 mins by HTRF method; format: cell-based
[3] = Dose normalized AUC (0 to 24 hrs) in Sprague-Dawley rat at 10 mg/kg, po; format: ADME, organism-based; settings: in vivo
[4] = Half life in Sprague-Dawley rat at 10 mg/kg, po; format: ADME, organism-based; settings: in vivo
[5] = Dose normalized AUC (0 to 24 hrs) in Balb/c mouse at 10 mg/kg, po; format: ADME, organism-based; settings: in vivo
[6] = Half life in Balb/c mouse at 10 mg/kg, po; format: ADME, organism-based; settings: in vivo
[7] = target: Mitogen-activated protein kinase kinase kinase kinase 2 (Homo sapiens, UniProt Q12851); assay: Inhibition of human recombinant full length GST tagged N-terminal MAP4K2 (1 to 820 end residues) expressed in insect Sf21 cells
[8] = target: Mitogen-activated protein kinase kinase kinase kinase 4 (Homo sapiens, UniProt O95819); assay: Inhibition of catalytic domain N-terminal GST tagged human MAP4K4 (1 to 328 residues) expressed in insect Sf21 cells
[9] = target: Tyrosine-protein kinase Fyn (Homo sapiens, UniProt P06241); assay: Inhibition of FYN (unknown origin)
[10] = target: Tyrosine-protein kinase SYK (Homo sapiens, UniProt P43405); assay: Inhibition of SYK (unknown origin)
[11] = target: Serine/threonine-protein kinase 4 (Homo sapiens, UniProt Q13043); assay: Inhibition of MST1 (unknown origin)
[12] = target: Receptor-type tyrosine-protein kinase FLT3 (Homo sapiens, UniProt P36888); assay: Inhibition of FLT3 (unknown origin)
[13] = target: Tyrosine-protein kinase JAK3 (Homo sapiens, UniProt P52333); assay: Inhibition of JAK3 (unknown origin)
[14] = target: Non-receptor tyrosine-protein kinase TYK2 (Homo sapiens, UniProt P29597); assay: Inhibition of TYK2 (unknown origin)
[15] = target: Serine/threonine-protein kinase PAK 1 (Homo sapiens, UniProt Q13153); assay: Inhibition of PAK1 (unknown origin)
[16] = target: Serine/threonine-protein kinase PAK 2 (Homo sapiens, UniProt Q13177); assay: Inhibition of PAK2 (unknown origin)
[17] = target: Tyrosine-protein kinase ITK/TSK (Homo sapiens, UniProt Q08881); assay: Inhibition of ITK (unknown origin)
[18] = target: Mitogen-activated protein kinase 14 (Homo sapiens, UniProt Q16539); assay: Inhibition of p38 alpha (unknown origin)
[19] = target: Serine/threonine-protein kinase PLK4 (Homo sapiens, UniProt O00444); assay: Inhibition of PLK4 (unknown origin)
[20] = target: Proto-oncogene tyrosine-protein kinase receptor Ret (Homo sapiens, UniProt P07949); assay: Inhibition of RET (unknown origin)
[21] = target: Tyrosine-protein kinase Blk (Homo sapiens, UniProt P51451); assay: Inhibition of BLK (unknown origin)
[22] = tested on: CT26; assay: Antitumor activity against mouse CT26 cells implanted in Balb/c mouse model assessed as tumor growth inhibition at high dose administered as po BID measured after 15 days relative to control; format: functional; settings: time 15 day
[23] = Toxicity in Balb/c mouse assessed as effect on body weight loss at 1.5 to 12 mg/kg, po BID measured after 15 days; format: organism-based; settings: in vivo, 360 h, dose 1.5-12 mg/kg, time 15 day
[24] = Toxicity in C57BL/6 mouse implanted with mouse MC38 cells assessed as effect on body weight loss at low dose, po BID measured after 12 days; format: organism-based; settings: in vivo, 288 h, time 12 day
[25] = Toxicity in C57BL/6 mouse implanted with mouse MC38 cells assessed as increase in survival at high dose, po BID measured after 12 days; format: organism-based; settings: in vivo, 288 h, time 12 day
[26] = Toxicity in C57BL/6 mouse implanted with mouse MC38 cells assessed as increase in survival at low dose, po BID measured after 12 days in presence of anti-PD-1; format: organism-based; settings: in vivo, 288 h, time 12 day
[27] = Solubility in compound in FassIF at pH 6.5 incubated for 24 hrs by HPLC-UV analysis; format: physicochemical
[28] = Efflux ratio in human Caco-2 cells; format: ADME, cell-based
[29] = Plasma protein binding in mouse assessed as unbound fraction at 2 uM incubated for 4 hrs by LC-MS/MS analysis; format: ADME, cell-free
[30] = Plasma protein binding in rat assessed as unbound fraction at 2 uM incubated for 4 hrs by LC-MS/MS analysis; format: ADME, cell-free
[31] = Plasma protein binding in dog assessed as unbound fraction at 2 uM incubated for 4 hrs by LC-MS/MS analysis; format: ADME, cell-free, Canis lupus familiaris
[32] = Plasma protein binding in cynomolgous monkey assessed as unbound fraction at 2 uM incubated for 4 hrs by LC-MS/MS analysis; format: ADME, cell-free, Macaca fascicularis; settings: cynomolgus monkey
[33] = target: Cytochrome P450 2C9 (Homo sapiens, UniProt P11712); assay: Inhibition of CYP2C9 in human liver microsomes using diclofenac 4-hydroxylation as substrate incubated for 10 mins in presence of NADPH by LC-MS/MS analysis; format: ADME, Microsome
[34] = Genotoxicity in Salmonella typhimurium TA100 incubated for 48 to 72 hrs in presence of S9 fraction by AMES test; format: toxicity, subcellular; settings: salmonella enterica subsp. enterica serovar typhimurium, time 48-72 hrs
[35] = Genotoxicity in Salmonella typhimurium TA1535 incubated for 48 to 72 hrs in presence of S9 fraction by AMES test; format: toxicity, subcellular; settings: salmonella enterica subsp. enterica serovar typhimurium, time 48-72 hrs
[36] = Genotoxicity in Salmonella typhimurium TA1537 incubated for 48 to 72 hrs in presence of S9 fraction by AMES test; format: toxicity, subcellular; settings: salmonella enterica subsp. enterica serovar typhimurium, time 48-72 hrs
[37] = Genotoxicity in […] WP2 uvrA incubated for 48 to 72 hrs in presence of S9 fraction by AMES test; format: toxicity, subcellular; settings: time 48-72 hrs
[38] = Effect on IL-2 secretion in human T cells by ELISA method; format: functional, cell-based; settings: T-cell
[39] = Effect on IFN-gamma secretion in human T cells by ELISA method; format: functional, cell-based; settings: T-cell
[40] = dog, in vivo, po, 2 mg/kg
[41] = in vivo; settings: Beagle, dog, po, 2 mg/kg
Description: Half life in Beagle dog at 2 mg/kg, po

[42] = in vivo; settings: Beagle, dog, po, 2 mg/kg; remark: listed apart in the source
[43] = in vivo; settings: cynomolgus monkey, plasma, iv, 1 mg/kg
Description: Clearance in Cynomolgus monkey plasma at 1 mg/kg, iv

[44] = in vivo; settings: cynomolgus monkey, iv, 1 mg/kg
Description: Volume of distribution in Cynomolgus monkey at 1 mg/kg, iv

[45] = in vivo; settings: cynomolgus monkey, po, 2 mg/kg
Description: Half life in Cynomolgus monkey at 2 mg/kg, po

[46] = in vivo; settings: cynomolgus monkey, po, 2 mg/kg; remark: listed apart in the source

T1 sequence (Q92918 whole entry, the tested form may be a part): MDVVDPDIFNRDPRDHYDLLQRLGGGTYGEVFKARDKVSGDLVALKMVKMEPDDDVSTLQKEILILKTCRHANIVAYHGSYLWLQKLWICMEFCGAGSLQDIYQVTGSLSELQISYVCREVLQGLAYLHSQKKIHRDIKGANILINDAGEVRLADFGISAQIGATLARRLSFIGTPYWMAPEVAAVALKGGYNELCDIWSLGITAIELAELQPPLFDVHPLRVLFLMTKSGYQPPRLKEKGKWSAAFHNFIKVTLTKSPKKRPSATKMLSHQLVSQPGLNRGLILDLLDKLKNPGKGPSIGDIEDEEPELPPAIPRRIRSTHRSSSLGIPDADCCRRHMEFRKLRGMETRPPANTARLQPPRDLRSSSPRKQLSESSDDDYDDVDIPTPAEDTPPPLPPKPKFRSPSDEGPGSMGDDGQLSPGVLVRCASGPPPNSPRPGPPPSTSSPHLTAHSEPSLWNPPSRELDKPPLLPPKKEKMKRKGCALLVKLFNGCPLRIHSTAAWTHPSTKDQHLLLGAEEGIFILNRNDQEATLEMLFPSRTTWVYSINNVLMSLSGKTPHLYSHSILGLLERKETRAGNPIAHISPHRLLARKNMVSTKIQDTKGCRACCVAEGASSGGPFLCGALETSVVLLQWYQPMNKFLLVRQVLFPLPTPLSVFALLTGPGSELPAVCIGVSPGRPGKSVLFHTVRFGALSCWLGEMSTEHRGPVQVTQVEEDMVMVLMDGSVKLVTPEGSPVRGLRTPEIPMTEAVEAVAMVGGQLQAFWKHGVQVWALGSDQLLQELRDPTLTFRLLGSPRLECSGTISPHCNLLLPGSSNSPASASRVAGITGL
Tyrosine-protein kinase ITK/TSK, sequence (Q08881 whole entry): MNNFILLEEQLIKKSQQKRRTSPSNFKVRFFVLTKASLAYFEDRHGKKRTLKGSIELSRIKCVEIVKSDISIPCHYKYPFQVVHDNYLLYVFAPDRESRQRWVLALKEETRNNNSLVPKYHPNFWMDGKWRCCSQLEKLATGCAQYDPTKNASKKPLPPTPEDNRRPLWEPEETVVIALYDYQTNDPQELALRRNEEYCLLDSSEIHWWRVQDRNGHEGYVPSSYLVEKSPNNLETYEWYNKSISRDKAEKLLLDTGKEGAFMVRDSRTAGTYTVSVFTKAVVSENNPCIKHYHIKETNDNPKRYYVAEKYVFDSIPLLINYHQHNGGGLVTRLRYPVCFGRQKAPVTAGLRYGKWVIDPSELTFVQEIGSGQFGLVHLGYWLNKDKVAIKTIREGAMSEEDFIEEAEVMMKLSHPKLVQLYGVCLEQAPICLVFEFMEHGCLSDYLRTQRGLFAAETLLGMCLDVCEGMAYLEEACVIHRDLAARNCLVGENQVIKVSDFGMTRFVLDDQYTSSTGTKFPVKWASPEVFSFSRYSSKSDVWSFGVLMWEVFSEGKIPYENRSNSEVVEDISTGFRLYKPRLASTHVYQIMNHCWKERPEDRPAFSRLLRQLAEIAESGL
Serine/threonine-protein kinase PAK 2, sequence (Q13177 whole entry): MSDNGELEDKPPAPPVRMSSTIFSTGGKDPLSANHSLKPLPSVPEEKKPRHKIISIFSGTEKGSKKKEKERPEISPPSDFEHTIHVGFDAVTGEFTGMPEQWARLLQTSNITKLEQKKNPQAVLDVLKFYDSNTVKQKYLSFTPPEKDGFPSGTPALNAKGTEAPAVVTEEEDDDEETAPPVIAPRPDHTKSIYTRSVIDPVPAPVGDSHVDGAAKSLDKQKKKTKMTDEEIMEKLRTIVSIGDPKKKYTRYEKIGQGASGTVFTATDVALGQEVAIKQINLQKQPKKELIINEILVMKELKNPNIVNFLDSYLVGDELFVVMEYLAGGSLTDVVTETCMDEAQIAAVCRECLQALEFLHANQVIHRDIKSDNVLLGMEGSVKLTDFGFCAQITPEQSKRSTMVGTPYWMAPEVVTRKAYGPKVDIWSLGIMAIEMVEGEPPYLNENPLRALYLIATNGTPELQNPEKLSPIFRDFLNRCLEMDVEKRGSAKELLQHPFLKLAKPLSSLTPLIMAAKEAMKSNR
Non-receptor tyrosine-protein kinase TYK2, sequence (P29597 whole entry): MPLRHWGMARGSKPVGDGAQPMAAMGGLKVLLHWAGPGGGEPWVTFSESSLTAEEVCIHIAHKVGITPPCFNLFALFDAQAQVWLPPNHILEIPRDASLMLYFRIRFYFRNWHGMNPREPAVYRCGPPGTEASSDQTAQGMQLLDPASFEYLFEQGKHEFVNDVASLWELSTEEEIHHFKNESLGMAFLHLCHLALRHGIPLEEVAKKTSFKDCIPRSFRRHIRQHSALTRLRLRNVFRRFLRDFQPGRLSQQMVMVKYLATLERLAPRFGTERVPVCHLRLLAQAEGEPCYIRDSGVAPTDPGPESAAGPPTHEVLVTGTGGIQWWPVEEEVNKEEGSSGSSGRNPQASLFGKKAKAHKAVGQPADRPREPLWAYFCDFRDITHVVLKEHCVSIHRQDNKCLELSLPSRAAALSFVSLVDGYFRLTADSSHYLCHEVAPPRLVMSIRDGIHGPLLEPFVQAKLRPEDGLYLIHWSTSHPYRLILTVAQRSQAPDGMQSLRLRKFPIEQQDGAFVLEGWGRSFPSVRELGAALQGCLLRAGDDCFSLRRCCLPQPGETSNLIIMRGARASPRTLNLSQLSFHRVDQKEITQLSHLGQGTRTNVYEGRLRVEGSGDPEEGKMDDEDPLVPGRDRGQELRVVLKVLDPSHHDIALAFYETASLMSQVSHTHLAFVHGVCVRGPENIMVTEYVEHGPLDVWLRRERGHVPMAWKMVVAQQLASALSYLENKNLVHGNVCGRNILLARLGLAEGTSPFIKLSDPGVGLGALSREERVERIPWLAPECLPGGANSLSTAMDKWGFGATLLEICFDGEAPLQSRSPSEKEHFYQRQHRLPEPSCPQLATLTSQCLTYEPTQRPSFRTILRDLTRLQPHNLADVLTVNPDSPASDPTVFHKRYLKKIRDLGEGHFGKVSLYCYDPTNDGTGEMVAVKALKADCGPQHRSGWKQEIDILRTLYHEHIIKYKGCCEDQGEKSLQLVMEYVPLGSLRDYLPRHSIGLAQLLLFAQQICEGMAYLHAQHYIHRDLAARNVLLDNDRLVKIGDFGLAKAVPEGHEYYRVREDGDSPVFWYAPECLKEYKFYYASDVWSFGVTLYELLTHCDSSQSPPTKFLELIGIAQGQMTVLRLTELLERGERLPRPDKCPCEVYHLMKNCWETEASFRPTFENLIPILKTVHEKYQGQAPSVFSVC
Cytochrome P450 2C9, sequence (P11712 whole entry): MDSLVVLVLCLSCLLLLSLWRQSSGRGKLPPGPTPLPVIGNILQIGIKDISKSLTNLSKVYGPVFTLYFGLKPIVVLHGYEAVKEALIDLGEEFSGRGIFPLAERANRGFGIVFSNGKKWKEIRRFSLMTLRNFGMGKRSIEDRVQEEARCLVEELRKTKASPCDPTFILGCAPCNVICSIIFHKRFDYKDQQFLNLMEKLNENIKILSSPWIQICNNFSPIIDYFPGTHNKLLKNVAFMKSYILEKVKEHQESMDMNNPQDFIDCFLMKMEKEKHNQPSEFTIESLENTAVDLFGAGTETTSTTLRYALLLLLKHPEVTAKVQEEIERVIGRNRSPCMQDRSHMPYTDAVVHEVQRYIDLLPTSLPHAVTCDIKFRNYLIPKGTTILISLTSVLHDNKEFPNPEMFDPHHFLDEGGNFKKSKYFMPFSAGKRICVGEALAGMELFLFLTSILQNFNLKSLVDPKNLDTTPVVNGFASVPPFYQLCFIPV
Mitogen-activated protein kinase kinase kinase kinase 4, sequence (O95819 whole entry, the tested form may be a part): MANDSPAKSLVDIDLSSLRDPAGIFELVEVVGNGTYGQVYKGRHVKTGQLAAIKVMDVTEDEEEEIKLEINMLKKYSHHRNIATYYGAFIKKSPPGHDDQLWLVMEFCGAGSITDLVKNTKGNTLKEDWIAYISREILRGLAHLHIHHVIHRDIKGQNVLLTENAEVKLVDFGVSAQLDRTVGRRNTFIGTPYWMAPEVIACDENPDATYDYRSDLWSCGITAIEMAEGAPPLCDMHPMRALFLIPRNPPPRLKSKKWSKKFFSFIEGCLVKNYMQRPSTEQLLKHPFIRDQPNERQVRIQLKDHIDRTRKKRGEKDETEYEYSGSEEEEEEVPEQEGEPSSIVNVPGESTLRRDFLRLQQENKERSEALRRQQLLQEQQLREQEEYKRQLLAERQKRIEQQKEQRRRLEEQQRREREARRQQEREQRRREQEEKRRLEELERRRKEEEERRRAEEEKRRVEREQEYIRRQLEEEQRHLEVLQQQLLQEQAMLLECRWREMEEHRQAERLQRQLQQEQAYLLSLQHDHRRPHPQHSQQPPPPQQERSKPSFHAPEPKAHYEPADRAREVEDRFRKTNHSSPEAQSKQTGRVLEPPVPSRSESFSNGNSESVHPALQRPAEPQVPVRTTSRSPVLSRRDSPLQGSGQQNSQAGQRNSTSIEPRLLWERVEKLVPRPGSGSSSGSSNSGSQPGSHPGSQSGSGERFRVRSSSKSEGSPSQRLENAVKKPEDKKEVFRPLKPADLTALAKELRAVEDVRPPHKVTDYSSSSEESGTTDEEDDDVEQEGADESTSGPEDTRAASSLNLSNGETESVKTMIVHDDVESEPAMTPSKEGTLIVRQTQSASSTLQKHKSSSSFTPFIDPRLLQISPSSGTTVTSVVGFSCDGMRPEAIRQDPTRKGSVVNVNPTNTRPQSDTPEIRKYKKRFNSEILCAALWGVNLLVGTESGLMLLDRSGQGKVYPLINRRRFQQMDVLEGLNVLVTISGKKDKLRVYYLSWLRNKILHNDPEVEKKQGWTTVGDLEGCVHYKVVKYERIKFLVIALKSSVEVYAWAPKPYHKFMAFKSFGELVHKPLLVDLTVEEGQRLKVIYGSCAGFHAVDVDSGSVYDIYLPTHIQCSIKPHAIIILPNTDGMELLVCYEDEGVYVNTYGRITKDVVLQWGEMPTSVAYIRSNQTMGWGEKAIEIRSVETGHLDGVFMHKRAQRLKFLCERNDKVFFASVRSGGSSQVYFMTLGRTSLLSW

Compound: COc1cc(Nc2ccc3c(n2)CN(C)C32CCN(C3COC3)CC2)c(C(N)=O)nc1-c1cccc2c1ncn2C
- pIC50 [1]: > 9.29
- pEC50 [2]: 7.36
- AUC/dose [3]: 593.6 ng·h/mL
- half-life [4]: 3.42 h
- AUC/dose [5]: 408.8 ng·h/mL
- half-life [6]: 1.45 h
- pIC50 [7]: 5.76
- pIC50 [8]: 6.42
- pIC50 [9]: < 5.00
- pIC50 [10]: < 5.00
- pIC50 [11]: 6.30
- pIC50 [12]: 6.50
- pIC50 [13]: < 5.00
- pIC50 [14]: < 5.00
- pIC50 [15]: < 5.00
- pIC50 [16]: < 5.00
- pIC50 [17]: < 5.00
- pIC50 [18]: < 5.00
- pIC50 [19]: < 5.00
- pIC50 [20]: 5.52
- pIC50 [21]: 5.72
- TGI [22]: 94.3%
- Activity [23]: Non-toxic
- Activity [24]: Non-toxic
- Activity [25]: Non-toxic
- Activity [26]: Non-toxic
- solubility at 24 h [27]: 18.9 µM (≈ 10.5 µg/mL)
- efflux ratio [28]: 8.4
- fraction unbound at 4 h, 2 µM [29]: 0.079
- fraction unbound at 4 h, 2 µM [30]: 0.058
- fraction unbound at 4 h, 2 µM [31]: 0.309
- fraction unbound at 4 h, 2 µM [32]: 0.153
- pIC50 [33]: < 4.30
- Activity [34]: Non-toxic
- Activity [35]: Non-toxic
- Activity [36]: Non-toxic
- Activity [37]: Non-toxic
- pEC50 [38]: 7.41
- pEC50 [39]: 7.31
- AUC/dose [40]: 563 ng·h/mL
- half-life [41]: 7.65 h
- bioavailability [42]: 41.5%
- clearance [43]: 11.4 mL/min/kg
- Vd [44]: 5.07 L/kg
- half-life [45]: 8.73 h
- bioavailability [46]: 42%

Source: ChEMBL document CHEMBL6074671, “Discovery of Pyridine-2-Carboxamides Derivatives as Potent and Selective HPK1 Inhibitors for the Treatment of Cancer” (J Med Chem, 2024)
